These results are taken from patent US20200002377A1, “COMPOUNDS USEFUL FOR THE TREATMENT AND/OR CARE OF THE SKIN, HAIR, NAILS AND/OR MUCOUS MEMBRANES” (LUBRIZOL ADVANCED MATERIALS, INC., priority 2016, published 2020).

Series [1] deals with Tight Junction Protein 1 (TJP1). Put plainly: Tight junction gene expression in HEKa, real time PCR array. The note with it: 50 μg/ml, 24 hours. (Quantitative PCR measures a nucleic acid by following its amplification.)
Protocol: (§1) HEKa cells (Life Technologies) are seeded at 6.0×10^5 cells/well in 6-well plates and incubated in culture medium Epilife™ with defined Growth Supplement (EDGS, Life Technologies) at 37° C. in a water-saturated atmosphere of 95% air and 5% CO2. After 24 hours of incubation under these conditions, medium is removed and cells are incubated with 50 μg/ml of a peptide of the invention (see Table 12) in fresh culture medium, except for two wells where HEKa cells are incubated with medium only (basal conditions), at 37° C. and 5% CO2.
(§2) After 24 hours of incubation, the cells are lysed directly in the wells following the protocol described on the RNeasy™ Mini kit (Qiagen) according to the manufacturer's protocol. The lysed cells are homogenized and the Rnases are inactivated. The genomic DNA is removed from the samples by using gDNA Eliminator spin columns (Qiagen). […] Quantification and analysis of purity of RNA samples are performed after RNA elution with a biophotometer (Eppendorf). […] SYBR Green binds to double-stranded DNA molecules and emits fluorescence which is quantified and is proportional to the amount of the product in the PCR reaction. […] Fold change relative to the expression of the sample genes and reference genes is calculated using normalized expression (ΔΔ(Ct)) method with default threshold values using CFX Manager Software (BioRad).
Series [2] deals with Nuclear Factor Kappa B subunit 1 (NFKB1). Put plainly: Innate immune response gene expression in HEKa, real time PCR array. The class given is cell-based, human. The note with it: 50 μg/ml, 24 h.
Protocol: (§3) HEKa cells (Life Technologies) are seeded at 6.0×10^5 cells/well in 6-well plates and incubated in culture medium Epillfe™ with defined Growth Supplement (EDGS, Life Technologies), at 37° C. in a water-saturated atmosphere of 95% air and 5% CO2. After 24 hours of incubation under these conditions, medium is removed and cells are incubated with 50 μg/ml (w/v) of a peptide of the invention (see Table 16) in fresh culture medium keeping two wells where HEKa cells are incubated with medium only (basal conditions) at 37° C. and 5% CO2.
After 24 h of incubation, the cells are lysed directly in the wells following the protocol described on the RNeasy™ Mini kit (Qiagen) according to the manufacturer's protocol. The lysed cells are homogenized and the RNases are inactivated. The genomic DNA is removed from the samples by using gDNA Eliminator spin columns (Qiagen). Then the samples are passed through special RNA binding columns (Qiagen) and, after several microcentrifugation washes to eliminate contaminants and impurities, the purified RNA is eluted with 50 μl of ultrapure water. Quantification and analysis of purity of RNA samples are performed after RNA elution with a biophotometer (Eppendorf). 1 μg of high-quality RNA is retrotranscribed with iScript™ advanced (BioRad) in a final volume of 20 μl·Complete reaction mix is incubated in a thermal cycler (Eppendorf) at 42° C. for 30 minutes, and the reactions are stopped at 85° C. for 5 minutes. Complementary DNA is amplified by qPCR in a real-time PCR thermocycler (BioRad) using SYBR®Green supermix (BioRad) and a customized plate for use with SYBR®Green (BioRad). SYBR®Green binds to double-stranded DNA molecules and emits fluorescence which is quantified and is proportional to the amount of the product in the PCR reaction. Cycling conditions in BioRad CFX96™ instrument are 95° C. for 3 minutes, followed by 40 cycles of denaturing at 95° C. for 5 seconds, annealing and elongation at 60° C. for 30 seconds. GAPDH (Glyceraldehyde 3-phosphate dehydrogenase), TBP (TATA box binding protein) and HRPT1 (hypoxanthine phosphoribosyltransferase 1) are used as endogenous controls. Fold change relative to the expression of the sample genes and reference genes is calculated using normalized expression (ΔΔ(Ct)) method with default threshold values using CFX Manager Software (BioRad).
(§4) Genes analyzed are Chemokine (C-C motif) Ligand 5 (CCL5), Myeloid Differentiation primary response gene 88 (MyD88), Nuclear Factor Kappa B subunit 1 (NFKB1) and interferon Regulatory Factor 3 (IRF3).
In series [3] the test system is Staphylococcus epidermidis. Nature of the series: Adherence of Staphylococcus epidermidis in keratinocytes (HaCaT) in competition with S. aureus bioparticles. The class given is cell-based. The note with it: 50 μg/ml, 24 h, basal = 0. The procedure:
After that treatment, cells are washed with phosphate-buffered saline (PBS, Sigma) and are then incubated with a solution of Staphylococcus epidermidis (ATCC®12228™, Culture Collections) treated with green-fluorescence calcein AM (Life technologic) and Alexa Fluor 594™ Bioparticles Staphylococcus aureus (ThermoFisher) in PBS for 30 minutes at 37° C. and protected from light. At the end of the incubation period, cells are washed with PBS and fixed in 4% (v/v) paraformaldehyde (PFA, Sigma) for 30 minutes. After rinsing with PBS, the nuclei are stained with Hoechst 33342, trihydrochloride trihydrate (ThermoFisher) in PBS for 10 minutes before analysis.
Cellular imaging is performed by fluorescence microscopy using the Operetta® High Content Imaging System (PerkinElmer). From each fluorescence image, Staphylococcus epidermidis is quantified as a number of spots and normalized against the number of keratinocyte nuclei and the total bacteria number (understood as the addition of detected S. epidermidis spots and S. aureus bioparticles). Each value obtained is normalized respect to basal conditions (non-treated keratinocytes). An image is taken in three different fields per well. 12 representative images from each condition are analyzed with Harmony software (PerkinElmer).
The normalized percentage of Staphylococcus epidermidis respect to basal conditions in treated keratinocytes is represented in Table 17.

Series [4] concerns tight junction (TJ) barrier in reconstructed human epidermis (RHE). Put plainly: TJ permeability assay, biotin dye penetration in RHE with SDS. The note with it: 24 hours. The class given is cell-based. The procedure:
TJ permeability assay using surface biotinylation technique was performed in incubated reconstructed human epidermis (RHE) with EZ-UN Sulfo-NHS-LC-LC-Biotin from the dermal side. The aim of this study is to investigate the ability of peptides of the invention to enhance the barrier function by inhibiting diffusion of the dye through stratum granulosum in presence of sodium dodecyl sulfate (SDS) which causes functional deterioration of TJs.
SkinEthic human tissue models (EpiSkin) are removed from their agarose-nutrient solution in a multiwell plate immediately after arrival and are placed in a 6-well plate in which each well has previously been filled with SkinEthic Growth Medium (EpiSkin). After overnight incubation at 37° C., 5% CO2, tissue models are treated with 50 μg/ml of peptide Ac-Glu-Glu-Met-Gln-Arg-Arg-Ala-NH2 (PEP-2) and a 0.02 mg/ml sodium dodecyl sulfate (SDS, Sigma) solution in growth medium, (1 ml/well). […]
Microscopical observations are performed with a Zeiss fluorescence microscope and photographs of each condition are taken with the associated camera. Fluorescence images of biotin are quantified as the product of its area and the intensity mean value of channel ‘EGFP’ Green (excitation: 488 nm and emission: 509 nm) and normalized by basal conditions. At least 12 representative images from each condition are collected and analyzed with the ZEN software (Zeiss). […]

Series [5] deals with stratum corneum barrier in reconstructed human epidermis (RHE). Nature of the series: Toluidine blue diffusion assay in RHE with SDS. On the set-up: key: 4: Strong; 3: Clear; 2: Moderate; 1: Slight. Conditions: 24 h, SDS 0.02 mg/ml on top layer, peptide 50 μg/ml + SDS. The class given is cell-based. As to the method:
The SkinEthic human tissue models (EpiSkin) are removed from their agarose-nutrient solution in the multiwell plate immediately after arrival and are placed in a 6-well plate in which each well has previously been filled with SkinEthic Growth Medium (EpiSkin). After overnight incubation at 37° C., 5% CO2, the top layer of tissue model is treated with 100 μl of a 50 μg/ml solution of peptide Ac-Glu-Glu-Met-Gln-Arg-Arg-Ala-NH2 (PEP-2) in a 0.02 mg/ml sodium dodecyl sulfate (SDS, Sigma) solution in growth medium and dermal side of tissue model is treated with 1 ml of a 50 μg/ml solution of the same peptide in growth medium. The top layer and dermal side of a tissue model is treated with growth medium as basal condition. In another tissue model, its top layer is treated with a 0.02 mg/ml SDS solution in growth medium while its dermal side is treated with growth medium alone, both in absence of peptide, for its use as a positive control. All incubations are performed at 37° C. and 5% CO2 for 24 h.
After the 24-hours treatment, the top layer of tissue models are further treated with 200 μl of methanol for 2 min at room temperature and, after that, they are rinsed twice with 200 μl of phosphate-buffered saline (PBS, Sigma). […] At least 12 representative images from each condition are collected and scored according to the ranking described in Table 14. […]

For series [6], the system named is Claudin 1 (CLDN1). Nature of the series: Tight junction gene expression in HEKa, real time PCR array. The note with it: 50 μg/ml, 24 hours.
Protocol: as §1, §2
In series [7] the test system is Reconstructed Human Epidermis (RHE). Put plainly: Lipidomic profile (UPLC-MS) of in vitro epidermal model. The class given is cell-based. Conditions: 50 μg/ml, 24 hours, vs basal conditions. The procedure:
The SkinEthic human tissue models (EpiSkin™) are removed from their agarose-nutrient solution in the multiwell plate immediately after arrival and are placed in a 6-well plate in which each well has previously been filled with SkinEthic Growth Medium (EpiSkin™). After overnight incubation at 37° C., 5% CO2, Reconstructed Human Epidermis (RHE) are treated with 50 μg/ml of peptides Ac-Glu-Glu-Met-Gln-Arg-Arg-NH2 (PEP-1), Ac-Glu-Glu-Met-Gln-Arg-Arg-Ala-NH2 (PEP-2) or Ac-Glu-Glu-Met-Gln-Arg-Arg-Ala-Asp-NH2 (PEP-3) or medium (basal conditions) for 24 hours at 37° C. and 5% CO2. After the 24 hours treatment, RHE are frozen and stored at −20° C. Each treatment is applied to five RHE per condition.
Epidermal membrane model samples are thawed and removed from the inserts using a scalpel and transferred to homogenization tubes. Samples are mixed with sodium chloride (50 mM) and chloroform/methanol (2/1) (v:v) and homogenized. The extraction solvent is spiked with metabolites not detected in unspiked human serum extracts. After homogenizing the samples, extracts are incubated for 1 hour at −20° C. and centrifuged at 18,000×g for 15 minutes. The organic phase is then collected and dried under vacuum. Dried extracts are finally reconstituted in acetonitrile/isopropanol (1/1) (v:v), centrifuged at 18,000×g for 5 minutes and transferred to vials for UPLCs-MS analysis.
All data are processed using the TargetLynx™ application manager for MassLynx™ 4.1 software (Waters Corp., Milford, USA). A set of predefined retention time, mass-to-charge ratio pairs, Rt-m/z, corresponding to metabolites included in the analysis are fed into the program. Associated extracted ion chromatograms (mass tolerance window=0.05 Da) are then peak-detected and noise-reduced in both the LC and MS domains such that only true metabolite related features are processed by the software. A list of chromatographic peak areas is then generated for each sample injection and value respect to basal conditions is calculated.
Average of five values obtained for each peptide in relation to those obtained for basal conditions (without peptide in the medium) are shown in Table 11.

The subject of series [8] is interferon Regulatory Factor 3 (IRF3). Put plainly: Innate immune response gene expression in HEKa, real time PCR array. Conditions: 50 μg/ml, 24 h.
Protocol: as §3
After 24 h of incubation, the cells are lysed directly in the wells following the protocol described on the RNeasy™ Mini kit (Qiagen) according to the manufacturer's protocol. […] Quantification and analysis of purity of RNA samples are performed after RNA elution with a biophotometer (Eppendorf). […] SYBR®Green binds to double-stranded DNA molecules and emits fluorescence which is quantified and is proportional to the amount of the product in the PCR reaction. […] Fold change relative to the expression of the sample genes and reference genes is calculated using normalized expression (ΔΔ(Ct)) method with default threshold values using CFX Manager Software (BioRad).
as §4

On to “Ac-EEMQRR-OH [PEP-61, Ac-Glu-Glu-Met-Gln-Arg-Arg-OH]”, for which, in series [1], the “TJP1 fold induction respect to basal conditions” value amounted to 1.71. In series [2], the “NFKB1 fold induction respect to basal conditions” value came out at 1.71. The “S. epidermidis (%), normalized percentage respect to basal conditions” value in series [3] is given as 3.08%.
Turning to `CCCCCCCCCCCCOS(=O)(=O)[O-].[Na+]` [SDS, sodium dodecyl sulfate, reference compound], in series [4] (treatment from dermal side), the “Fold change with respect to basal condition (biotin fluorescence)” value stood at 1.90. Further, the “Total score (Toluidine Blue staining)” value in series [5] turned out to be 4.
On to “Ac-EEMQRRED-NH2 [PEP-23, Ac-Glu-Glu-Met-Gln-Arg-Arg-Glu-Asp-NH2]”, for which the “NFKB1 fold induction respect to basal conditions” value in series [2] amounted to 2.58. In addition, the “S. epidermidis (%), normalized percentage respect to basal conditions” value in series [3] turned out to be 20.10%. The “CLDN1 fold induction respect to basal conditions” value in series [6] is 2.58.
On to “Ac-EEMQRKAD-NH2 [PEP-14, Ac-Glu-Glu-Met-Gln-Arg-Lys-Ala-Asp-NH2]”, for which, in series [2], the “NFKB1 fold induction respect to basal conditions” value is reported as 2.59. For the same compound, the “S. epidermidis (%), normalized percentage respect to basal conditions” value in series [3] came to 22.18%. Besides, the “CLDN1 fold induction respect to basal conditions” value in series [6] came to 2.59.
For “Ac-EEMQRRA-NH2 [PEP-2, Ac-Glu-Glu-Met-Gln-Arg-Arg-Ala-NH2]”, the “penetration of biotin to stratum corneum (result in words)” value in series [4] (peptide 50 μg/ml with 0.02 mg/ml SDS) is “able to strengthen the tight junction (TJ) barrier”. Besides, in series [7], the “Cer_AP48 N-(alpha-hydroxyacyl) phytosphingosines” value is given as 1.37 fold change, the “Cer_NP48 N-acyl phytosphingosines” value is given as 1.24 fold change, the “Cer_NP49 N-acyl phytosphingosines” value amounted to 1.23 fold change and the “Cer_NP50 N-acyl phytosphingosines” value amounted to 1.23 fold change. In series [7], the “Cer_NP51 N-acyl phytosphingosines” value was found to be 1.19 fold change, the “Cer_NS50 N-acyl sphingosines” value was determined as 1.18 fold change, the “Cer_NS51 N-acyl sphingosines” value is 1.13 fold change and the “Cer_NS52 N-acyl sphingosines” value came out at 1.37 fold change. In addition, in series [7], the “Cer_NdS47 N-acyl dihydrosphingosines” value is reported as 1.10 fold change, the “Cer_NdS48 N-acyl dihydrosphingosines” value was 1.23 fold change, the “Cer_NdS49 N-acyl dihydrosphingosines” value is on record as 1.46 fold change and the “Cer_NdS50 N-acyl dihydrosphingosines” value was found to be 1.50 fold change. For the same compound, the “NFKB1 fold induction respect to basal conditions” value in series [2] is 2.19. Moreover, the “Total score (Toluidine Blue staining)” value in series [5] is on record as 2. In series [3], the “S. epidermidis (%), normalized percentage respect to basal conditions” value is given as 24.69%.
As for “Ac-EEMQRRAD-NH2 [PEP-3, Ac-Glu-Glu-Met-Gln-Arg-Arg-Ala-Asp-NH2]”, in series [7], the “Cer_AP48 N-(alpha-hydroxyacyl) phytosphingosines” value is listed as 1.15 fold change, the “Cer_NP48 N-acyl phytosphingosines” value is 1.19 fold change, the “Cer_NP49 N-acyl phytosphingosines” value was determined as 1.14 fold change and the “Cer_NP50 N-acyl phytosphingosines” value is on record as 1.30 fold change. Moreover, in series [7], the “Cer_NP51 N-acyl phytosphingosines” value amounted to 1.24 fold change, the “Cer_NS50 N-acyl sphingosines” value turned out to be 1.14 fold change, the “Cer_NS51 N-acyl sphingosines” value was found to be 1.10 fold change and the “Cer_NS52 N-acyl sphingosines” value was 1.30 fold change. Also, in series [7], the “Cer_NdS47 N-acyl dihydrosphingosines” value turned out to be 1.20 fold change, the “Cer_NdS48 N-acyl dihydrosphingosines” value was 1.34 fold change, the “Cer_NdS49 N-acyl dihydrosphingosines” value is given as 1.43 fold change and the “Cer_NdS50 N-acyl dihydrosphingosines” value is 1.68 fold change. For the same compound, the “NFKB1 fold induction respect to basal conditions” value in series [2] was 2.04. Further, the “S. epidermidis (%), normalized percentage respect to basal conditions” value in series [3] is on record as 11.46%.
As to “H-EEMQRH-NH2 [PEP-57, H-Glu-Glu-Met-Gln-Arg-His-NH2]”, the “NFKB1 fold induction respect to basal conditions” value in series [2] is 2.49. In series [3], the “S. epidermidis (%), normalized percentage respect to basal conditions” value came out at 13.57%. In addition, in series [8], the “IRF3 fold induction respect to basal conditions” value amounted to 2.49.
With “Ac-EQMQRR-NH2 [PEP-50, Ac-Glu-Gln-Met-Gln-Arg-Arg-NH2]”, the “NFKB1 fold induction respect to basal conditions” value in series [2] was 2.25. Also, the “S. epidermidis (%), normalized percentage respect to basal conditions” value in series [3] stood at 4.14%. Further, the “IRF3 fold induction respect to basal conditions” value in series [8] was 2.25.
